Test results as given in patent US20250313533A1, “QUINOLINE CARBOXYLIC ACID ESTER COMPOUND AND PREPARATION METHOD AND USE THEREOF” (priority 2019, published 2025).

Assays:
[1] = tested on: pathogenic bacteria causing bacterial angular leaf spot in cucumbers; assay: In vitro bactericidal activity, bacterial angular leaf spot in cucumbers; assay type: cell-based, pseudomonas; settings: read-out: inhibitory rate; for inhibition at 1 ppm: dosage 1 ppm; for inhibition at 5 ppm: dosage 5 ppm
[2] = tested on: pathogenic bacteria causing bacterial wilt in tobacco; assay: whole plant or invertebrate; assay type: cell-based, ralstonia; settings: read-out: inhibitory rate
[3] = tested on: pathogenic bacteria causing black shank in potatoes; assay: In vitro bactericidal activity, black shank in potatoes; assay type: cell-based; settings: read-out: inhibitory rate; for inhibition at 1 ppm: dosage 1 ppm; for inhibition at 5 ppm: dosage 5 ppm
[4] = tested on: pathogenic bacteria causing stem rot in sweet potatoes; assay: In vitro bactericidal activity, stem rot in sweet potatoes; assay type: cell-based, dikia; settings: read-out: inhibitory rate; for inhibition at 1 ppm: dosage 1 ppm; for inhibition at 5 ppm: dosage 5 ppm
[5] = tested on: pathogenic bacteria causing bacterial blight in rice; assay: whole plant or invertebrate; assay type: cell-based, xanthomonas; settings: read-out: inhibitory rate
[6] = tested on: pathogenic bacteria causing fruit blotch in watermelons; assay: In vitro bactericidal activity, fruit blotch in watermelons; assay type: cell-based, acidovorax; settings: read-out: inhibitory rate; for inhibition at 1 ppm: dosage 1 ppm; for inhibition at 5 ppm: dosage 5 ppm
[7] = tested on: pathogenic bacteria causing black rot in Chinese cabbages; assay: In vitro bactericidal activity, black rot in Chinese cabbages; assay type: cell-based, xanthomonas; settings: Xanthomonas, read-out: inhibitory rate; for inhibition at 1 ppm: dosage 1 ppm; for inhibition at 5 ppm: dosage 5 ppm
[8] = tested on: pathogenic bacteria causing bacterial wilt in cassava; assay: organism not typed; assay type: cell-based; settings: read-out: inhibitory rate
[9] = tested on: pathogenic bacteria causing fire blight in pears; assay: In vitro bactericidal activity, fire blight in pears; assay type: cell-based, erwinia; settings: Erwinia, read-out: inhibitory rate; for inhibition at 1 ppm: dosage 1 ppm; for inhibition at 5 ppm: dosage 5 ppm
black shank in potatoes = assay: Living crops in vivo protective activity, potatoes (root irrigation); settings: Solanum tuberosum, read-out: efficacy against black shank in potatoes; for pest or weed control at 5 ppm: dosage 5 ppm; for pest or weed control at 10 ppm: dosage 10 ppm
Procedure: Root irrigation was carried out on the potatoes for tests according to the designed concentration of the agents. The dosage for each plant was 200 mL and was kept consistent (also for the control). The black shank bacteria were inoculated on the second day after the application. The results were investigated according to the disease condition.

[10] = tested on: indoor potted cucumber seedlings; assay: Effect of improving growth and development of crops; assay type: in vivo; set-up: Rate of growth rate increase (%): concentration or dose not given beside the values; settings: versus blank control; for Rate of chlorophyll content increase (%) / Rate of leaf area increase (%): 14 days after application; for Rate of growth rate increase (%): plant height 14 days after application; for Rate of leaf area increase (%): second leaf
Procedure, shortened: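 SPAD chlorophyll, plant height and second-leaf dimensions measured at application and 14 d later; leaf area from length (base to tip) and width (upper shoulder).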

cucumber seedlings = assay: Safety for plant growth after application; assay type: in vivo; settings: dosage 200 ppm
Procedure, shortened: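 Safety to the crop is assessed on cucumber seedlings in indoor pots by tracking how treatment alters leaf area, chlorophyll level and height growth rate.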

[11] = tested on: bacterial wilt in tobacco; assay: whole plant or invertebrate; settings: Nicotiana tabacum, read-out: efficacy against bacterial wilt in tobacco
[12] = tested on: stem rot in sweet potatoes; assay: whole plant or invertebrate; settings: read-out: efficacy against stem rot in sweet potatoes
bacterial blight in rice = assay: whole plant or invertebrate; settings: Oryza sativa, read-out: efficacy against bacterial blight in rice
[13] = tested on: fruit blotch in watermelons; assay: whole plant or invertebrate; settings: read-out: efficacy against fruit blotch in watermelons
[14] = tested on: soft rot in Chinese cabbages; assay: whole plant or invertebrate; settings: 48 h, read-out: efficacy against soft rot in Chinese cabbages

| SMILES | inhibition at 1 ppm [1] | inhibition at 5 ppm [1] | inhibition at 1 ppm [2] | inhibition at 5 ppm [2] | inhibition at 1 ppm [3] | inhibition at 5 ppm [3] | inhibition at 1 ppm [4] | inhibition at 5 ppm [4] | inhibition at 1 ppm [5] | inhibition at 5 ppm [5] | inhibition at 1 ppm [6] | inhibition at 5 ppm [6] | inhibition at 1 ppm [7] | inhibition at 5 ppm [7] | inhibition at 1 ppm [8] | inhibition at 5 ppm [8] | inhibition at 1 ppm [9] | inhibition at 5 ppm [9] | pest or weed control at 5 ppm (black shank in potatoes) | pest or weed control at 10 ppm (black shank in potatoes) | other results |
| --- | --- | --- | --- | --- | --- | --- | --- | --- | --- | --- | --- | --- | --- | --- | --- | --- | --- | --- | --- | --- | --- |
| COCCOC(=O)c1cn(C2CC2)c2cc(OC3CC3)c(F)cc2c1=O [Compound 294, 2-methoxyethyl 7-cyclopropoxy-1-cyclopropyl-6-fluoro-4-oxo-1,4-dihydroquinoline-3-carboxylate] | ≥ 90% | ≥ 90% | ≥ 90% | ≥ 90% | ≥ 90% | ≥ 90% | ≥ 90% | ≥ 90% | ≥ 90% | ≥ 90% | ≥ 90% | ≥ 90% | ≥ 90% | ≥ 90% | ≥ 90% | ≥ 90% | ≥ 90% | ≥ 90% | ≥ 90% | ≥ 90% | Rate of chlorophyll content increase (%) [10]: 10%; Rate of growth rate increase (%) [10]: 9%; Rate of leaf area increase (%) [10]: 12%; safety for plant growth (discoloration, necrosis, wilt, malformation) (cucumber seedlings): safe for plant growth; pest or weed control at 5 ppm [11]: ≥ 90%; pest or weed control at 10 ppm [11]: ≥ 90%; pest or weed control at 5 ppm [12]: ≥ 90%; pest or weed control at 10 ppm [12]: ≥ 90%; pest or weed control at 5 ppm (bacterial blight in rice): ≥ 90%; pest or weed control at 10 ppm (bacterial blight in rice): ≥ 90%; pest or weed control at 5 ppm [13]: ≥ 90%; pest or weed control at 10 ppm [13]: ≥ 90%; pest or weed control at 5 ppm [14]: ≥ 90%; pest or weed control at 10 ppm [14]: ≥ 90% |
| COCCOC(=O)c1cn(C2CC2)c2cc(OC3CCCC3)c(F)cc2c1=O [Compound 296] | ≥ 90% | ≥ 90% | ≥ 90% | ≥ 90% | ≥ 90% | ≥ 90% | ≥ 90% | ≥ 90% | ≥ 90% | ≥ 90% | ≥ 90% | ≥ 90% | ≥ 90% | ≥ 90% | ≥ 90% | ≥ 90% | ≥ 90% | ≥ 90% | ≥ 90% | ≥ 90% | Rate of chlorophyll content increase (%) [10]: 16%; Rate of growth rate increase (%) [10]: 12%; Rate of leaf area increase (%) [10]: 11%; safety for plant growth (discoloration, necrosis, wilt, malformation) (cucumber seedlings): safe for plant growth; pest or weed control at 5 ppm [11]: ≥ 90%; pest or weed control at 10 ppm [11]: ≥ 90%; pest or weed control at 5 ppm [12]: ≥ 90%; pest or weed control at 10 ppm [12]: ≥ 90%; pest or weed control at 5 ppm (bacterial blight in rice): ≥ 90%; pest or weed control at 10 ppm (bacterial blight in rice): ≥ 90%; pest or weed control at 5 ppm [13]: ≥ 90%; pest or weed control at 10 ppm [13]: ≥ 90%; pest or weed control at 5 ppm [14]: ≥ 90%; pest or weed control at 10 ppm [14]: ≥ 90% |
| CCOc1cc2c(cc1F)c(=O)c(C(=O)OCCOC1CCCC1)cn2C1CC1 [Compound 307] | ≥ 90% | ≥ 90% | ≥ 90% | ≥ 90% | ≥ 90% | ≥ 90% | ≥ 90% | ≥ 90% | ≥ 90% | ≥ 90% | ≥ 90% | ≥ 90% | ≥ 90% | ≥ 90% | ≥ 90% | ≥ 90% | ≥ 90% | ≥ 90% | ≥ 90% | ≥ 90% | Rate of chlorophyll content increase (%) [10]: 11%; Rate of growth rate increase (%) [10]: 9%; Rate of leaf area increase (%) [10]: 12%; safety for plant growth (discoloration, necrosis, wilt, malformation) (cucumber seedlings): safe for plant growth; pest or weed control at 5 ppm [11]: ≥ 90%; pest or weed control at 10 ppm [11]: ≥ 90%; pest or weed control at 5 ppm [12]: ≥ 90%; pest or weed control at 10 ppm [12]: ≥ 90%; pest or weed control at 5 ppm (bacterial blight in rice): ≥ 90%; pest or weed control at 10 ppm (bacterial blight in rice): ≥ 90%; pest or weed control at 5 ppm [13]: ≥ 90%; pest or weed control at 10 ppm [13]: ≥ 90%; pest or weed control at 5 ppm [14]: ≥ 90%; pest or weed control at 10 ppm [14]: ≥ 90% |
| CCOc1cc2c(cc1F)c(=O)c(C(=O)OCCCO)cn2C1CC1 [Compound 309] | ≥ 90% | ≥ 90% | ≥ 90% | ≥ 90% | ≥ 90% | ≥ 90% | ≥ 90% | ≥ 90% | ≥ 90% | ≥ 90% | ≥ 90% | ≥ 90% | ≥ 90% | ≥ 90% | ≥ 90% | ≥ 90% | ≥ 90% | ≥ 90% | ≥ 90% | ≥ 90% | Rate of chlorophyll content increase (%) [10]: 16%; Rate of growth rate increase (%) [10]: 12%; Rate of leaf area increase (%) [10]: 15%; safety for plant growth (discoloration, necrosis, wilt, malformation) (cucumber seedlings): safe for plant growth; pest or weed control at 5 ppm [11]: ≥ 90%; pest or weed control at 10 ppm [11]: ≥ 90%; pest or weed control at 5 ppm [12]: ≥ 90%; pest or weed control at 10 ppm [12]: ≥ 90%; pest or weed control at 5 ppm (bacterial blight in rice): ≥ 90%; pest or weed control at 10 ppm (bacterial blight in rice): ≥ 90%; pest or weed control at 5 ppm [13]: ≥ 90%; pest or weed control at 10 ppm [13]: ≥ 90%; pest or weed control at 5 ppm [14]: ≥ 90%; pest or weed control at 10 ppm [14]: ≥ 90% |
| CCOc1cc2c(cc1F)c(=O)c(C(=O)OCCCOC)cn2C1CC1 [Compound 315] | ≥ 90% | ≥ 90% | ≥ 90% | ≥ 90% | ≥ 90% | ≥ 90% | ≥ 90% | ≥ 90% | ≥ 90% | ≥ 90% | ≥ 90% | ≥ 90% | ≥ 90% | ≥ 90% | ≥ 90% | ≥ 90% | ≥ 90% | ≥ 90% | ≥ 90% | ≥ 90% | Rate of chlorophyll content increase (%) [10]: 12%; Rate of growth rate increase (%) [10]: 9%; Rate of leaf area increase (%) [10]: 11%; safety for plant growth (discoloration, necrosis, wilt, malformation) (cucumber seedlings): safe for plant growth; pest or weed control at 5 ppm [11]: ≥ 90%; pest or weed control at 10 ppm [11]: ≥ 90%; pest or weed control at 5 ppm [12]: ≥ 90%; pest or weed control at 10 ppm [12]: ≥ 90%; pest or weed control at 5 ppm (bacterial blight in rice): ≥ 90%; pest or weed control at 10 ppm (bacterial blight in rice): ≥ 90%; pest or weed control at 5 ppm [13]: ≥ 90%; pest or weed control at 10 ppm [13]: ≥ 90%; pest or weed control at 5 ppm [14]: ≥ 90%; pest or weed control at 10 ppm [14]: ≥ 90% |
| COc1cc2c(cc1F)c(=O)c(C(=O)OCCCO)cn2C1CC1 [Compound 320] | ≥ 90% | ≥ 90% | ≥ 90% | ≥ 90% | ≥ 90% | ≥ 90% | ≥ 90% | ≥ 90% | ≥ 90% | ≥ 90% | ≥ 90% | ≥ 90% | ≥ 90% | ≥ 90% | ≥ 90% | ≥ 90% | ≥ 90% | ≥ 90% | ≥ 90% | ≥ 90% | Rate of chlorophyll content increase (%) [10]: 16%; Rate of growth rate increase (%) [10]: 14%; Rate of leaf area increase (%) [10]: 9%; safety for plant growth (discoloration, necrosis, wilt, malformation) (cucumber seedlings): safe for plant growth; pest or weed control at 5 ppm [11]: ≥ 90%; pest or weed control at 10 ppm [11]: ≥ 90%; pest or weed control at 5 ppm [12]: ≥ 90%; pest or weed control at 10 ppm [12]: ≥ 90%; pest or weed control at 5 ppm (bacterial blight in rice): ≥ 90%; pest or weed control at 10 ppm (bacterial blight in rice): ≥ 90%; pest or weed control at 5 ppm [13]: ≥ 90%; pest or weed control at 10 ppm [13]: ≥ 90%; pest or weed control at 5 ppm [14]: ≥ 90%; pest or weed control at 10 ppm [14]: ≥ 90% |
